Data published in US20210038753A1, “BIOLOGICAL STERILIZATION INDICATOR WITH STERILANT RESISTANCE MODULATOR” (3M INNOVATIVE PROPERTIES COMPANY, priority 2014, published 2021).

How the values were obtained:
[1] = tested on: Geobacillus stearothermophilus spores; assay: Resistance of self-contained biological indicators to hydrogen peroxide sterilization, glucosidase enzyme activity fluorescence readout (ENZ+); type: cell-based
Protocol: (§1) PET film (.09 mm thick) was coated with colloidal silica as described in International Publication No. WO2014/189716, which is incorporated herein by reference in its entirety. […] Separate aqueous spore coating solutions were prepared as described in Example 1 with the amino acids shown in table 4 present in the coating solutions. Two microliter aliquots (containing at least 10^6 spores) of the respective spore coating solutions were deposited onto the silica-coated PET film, forming a series of spaced-apart spots on the film. The spore coated films were dried in a 60° C. incubator for 12 minutes. Circular discs (hereinafter, “coated carriers”) of the PET film, each disc including one of the dried spots, were punched out and were used to assemble self-contained biological indicators (BI) similar to that shown in FIG. 1 of International Publication No. WO2014/189716. The coated carriers described above were placed into the “spore carrier 135” shown in FIG. 1 of International Publication No. WO2014/189716. Each self-contained BI comprised a polycarbonate outer container, a breaker, a cap, and a cap filter. Disposed inside the outer container were a coated carrier along with an ampoule media containing the nutrient medium from 3M ATTEST 1292 Rapid Readout Biological Indicators plus 5g/L methionine (as described in Example 1).
(§2) The self-contained biological indicators with different concentrations of additives (Table 4) were exposed to hydrogen peroxide sterilization in STERRAD NX sterilizer. The sterilization processes were run by manually injecting 1.0 ml of 59% hydrogen peroxide per load, unless specified otherwise. The exposure time was varied to determine the resistance profile of self-contained BIs with different additive formulations. The BIs were activated by pressing down the cap to break the media ampoule. The activated BIs were placed in a bench-top fluorimeter (3M Company, St. Paul, Minn.) to detect fluorescence.
(§3) A self-contained BI that is not completely inactivated (i.e., not all of the spores are killed by the sterilization process) will resume cellular functions upon activation of the BI. The production of glucosidase enzyme by surviving spores is an indication that at least one of the spores have not been inactivated (killed) by the sterilization process. The glucosidase enzyme cleaves the 4-methylumbelliferyl-glucoside (MUG) releasing the fluorescent methyl umbelliferone, which is detected using a bench-top fluorimeter. Growth and proliferation of spores in the self-contained biological indicator can also be detected by a pH change, which may be detected by a color change of the pH indicator in the growth medium.
(§4) Self-contained biological indicators were prepared (with various additives listed in table 4) as described above in this Example. For each additive tested, a lower range and a higher range was used as a preliminary screen to identify additives modulated the resistance of the spores to the sterilant. Five self-contained BIs representing each condition were exposed to hydrogen peroxide sterilization in STERRAD NX sterilizer. The sterilization processes used a constant injection volume (1.0 ml of 59% hydrogen peroxide) and various times (e.g., 20 seconds to 7 minutes) of exposure to the hydrogen peroxide. The self-contained BIs were activated after exposure to the sterilization process and were monitored for fluorescence using a bench-top fluorimeter) and pH based color change (visually). […]
(§5) Self-contained biological indicators (with various additives listed in table 5) were prepared as described in Example 2. The self-contained biological indicators were exposed to hydrogen peroxide in a STERRAD NX sterilizer as described in Example 2. The self-contained BIs were activated after exposure to the sterilization process and were monitored for fluorescence using a bench-top fluorimeter and pH based color change (visually).

[2] = tested on: Geobacillus stearothermophilus spores; assay: Resistance of self-contained biological indicators to hydrogen peroxide sterilization, growth readout by pH colour change (GRO+); type: cell-based
Protocol: as §1, §2, §3, §4, §5

[3] = Table 4, modulator 0.01 weight percent in spore coating solution, H2O2 exposure 30 sec.
[4] = Table 4, modulator 0.01 weight percent in spore coating solution, H2O2 exposure 60 sec.
[5] = Table 4, modulator 0.01 weight percent in spore coating solution, H2O2 exposure 90 sec.
[6] = Table 4, modulator 0.01 weight percent in spore coating solution, H2O2 exposure 3 min.
[7] = Table 4, modulator 0.01 weight percent in spore coating solution, H2O2 exposure 7 min.
[8] = Table 4, modulator 0.1 weight percent in spore coating solution, H2O2 exposure 30 sec.
[9] = Table 4, modulator 0.1 weight percent in spore coating solution, H2O2 exposure 60 sec.
[10] = Table 4, modulator 0.1 weight percent in spore coating solution, H2O2 exposure 90 sec.
[11] = Table 4, modulator 0.1 weight percent in spore coating solution, H2O2 exposure 3 min.
[12] = Table 4, modulator 0.1 weight percent in spore coating solution, H2O2 exposure 7 min.
[13] = Table 5, modulator 0.05 weight percent in spore coating solution, H2O2 exposure 20 sec.
[14] = Table 5, modulator 0.05 weight percent in spore coating solution, H2O2 exposure 30 sec.
[15] = Table 5, modulator 0.05 weight percent in spore coating solution, H2O2 exposure 60 sec.
[16] = Table 5, modulator 0.05 weight percent in spore coating solution, H2O2 exposure 90 sec.
[17] = Table 5, modulator 0.05 weight percent in spore coating solution, H2O2 exposure 3 min.
[18] = Table 5, modulator 0.05 weight percent in spore coating solution, H2O2 exposure 7 min.
[19] = Table 5, modulator 0.1 weight percent in spore coating solution, H2O2 exposure 20 sec.
[20] = Table 5, modulator 0.1 weight percent in spore coating solution, H2O2 exposure 30 sec.
[21] = Table 5, modulator 0.1 weight percent in spore coating solution, H2O2 exposure 60 sec.
[22] = Table 5, modulator 0.1 weight percent in spore coating solution, H2O2 exposure 90 sec.
[23] = Table 5, modulator 0.1 weight percent in spore coating solution, H2O2 exposure 3 min.
[24] = Table 5, modulator 0.1 weight percent in spore coating solution, H2O2 exposure 7 min.
[25] = Table 5, modulator 0.2 weight percent in spore coating solution, H2O2 exposure 20 sec.
[26] = Table 5, modulator 0.2 weight percent in spore coating solution, H2O2 exposure 30 sec.
[27] = Table 5, modulator 0.2 weight percent in spore coating solution, H2O2 exposure 60 sec.
[28] = Table 5, modulator 0.2 weight percent in spore coating solution, H2O2 exposure 90 sec.
[29] = Table 5, modulator 0.2 weight percent in spore coating solution, H2O2 exposure 3 min.
[30] = Table 5, modulator 0.2 weight percent in spore coating solution, H2O2 exposure 7 min.
[31] = Table 5, modulator 0.4 weight percent in spore coating solution, H2O2 exposure 20 sec.
[32] = Table 5, modulator 0.4 weight percent in spore coating solution, H2O2 exposure 30 sec.
[33] = Table 5, modulator 0.4 weight percent in spore coating solution, H2O2 exposure 60 sec.
[34] = Table 5, modulator 0.4 weight percent in spore coating solution, H2O2 exposure 90 sec.
[35] = Table 5, modulator 0.4 weight percent in spore coating solution, H2O2 exposure 3 min.
[36] = Table 5, modulator 0.4 weight percent in spore coating solution, H2O2 exposure 7 min.
[37] = Table 5, modulator 0.8 weight percent in spore coating solution, H2O2 exposure 20 sec.
[38] = Table 5, modulator 0.8 weight percent in spore coating solution, H2O2 exposure 30 sec.
[39] = Table 5, modulator 0.8 weight percent in spore coating solution, H2O2 exposure 60 sec.
[40] = Table 5, modulator 0.8 weight percent in spore coating solution, H2O2 exposure 90 sec.
[41] = Table 5, modulator 0.8 weight percent in spore coating solution, H2O2 exposure 3 min.
[42] = Table 5, modulator 0.8 weight percent in spore coating solution, H2O2 exposure 7 min.

N[C@@H](Cc1c[nH]cn1)C(=O)O [L-histidine]
percentage of self-contained biological indicators positive for glucosidase enzyme activity (ENZ+) [1, 3]: 100% | percentage of self-contained biological indicators positive for glucosidase enzyme activity (ENZ+) [1, 4]: 80% | percentage of self-contained biological indicators positive for glucosidase enzyme activity (ENZ+) [1, 5]: 0% | percentage of self-contained biological indicators positive for glucosidase enzyme activity (ENZ+) [1, 6]: 0% | percentage of self-contained biological indicators positive for glucosidase enzyme activity (ENZ+) [1, 7]: 0% | percentage of self-contained biological indicators positive for glucosidase enzyme activity (ENZ+) [1, 8]: 100% | percentage of self-contained biological indicators positive for glucosidase enzyme activity (ENZ+) [1, 9]: 10% | percentage of self-contained biological indicators positive for glucosidase enzyme activity (ENZ+) [1, 10]: 0% | percentage of self-contained biological indicators positive for glucosidase enzyme activity (ENZ+) [1, 11]: 0% | percentage of self-contained biological indicators positive for glucosidase enzyme activity (ENZ+) [1, 12]: 0% | percentage of self-contained biological indicators positive for glucosidase enzyme activity (ENZ+) [1, 13]: 100% | percentage of self-contained biological indicators positive for glucosidase enzyme activity (ENZ+) [1, 14]: 100% | percentage of self-contained biological indicators positive for glucosidase enzyme activity (ENZ+) [1, 15]: 0% | percentage of self-contained biological indicators positive for glucosidase enzyme activity (ENZ+) [1, 16]: 0% | percentage of self-contained biological indicators positive for glucosidase enzyme activity (ENZ+) [1, 17]: 0% | percentage of self-contained biological indicators positive for glucosidase enzyme activity (ENZ+) [1, 18]: 0% | percentage of self-contained biological indicators positive for glucosidase enzyme activity (ENZ+) [1, 19]: 100% | percentage of self-contained biological indicators positive for glucosidase enzyme activity (ENZ+) [1, 20]: 100% | percentage of self-contained biological indicators positive for glucosidase enzyme activity (ENZ+) [1, 21]: 67% | percentage of self-contained biological indicators positive for glucosidase enzyme activity (ENZ+) [1, 22]: 67% | percentage of self-contained biological indicators positive for glucosidase enzyme activity (ENZ+) [1, 23]: 0% | percentage of self-contained biological indicators positive for glucosidase enzyme activity (ENZ+) [1, 24]: 0% | percentage of self-contained biological indicators positive for glucosidase enzyme activity (ENZ+) [1, 25]: 100% | percentage of self-contained biological indicators positive for glucosidase enzyme activity (ENZ+) [1, 26]: 100% | percentage of self-contained biological indicators positive for glucosidase enzyme activity (ENZ+) [1, 27]: 33% | percentage of self-contained biological indicators positive for glucosidase enzyme activity (ENZ+) [1, 28]: 67% | percentage of self-contained biological indicators positive for glucosidase enzyme activity (ENZ+) [1, 29]: 0% | percentage of self-contained biological indicators positive for glucosidase enzyme activity (ENZ+) [1, 30]: 0% | percentage of self-contained biological indicators positive for glucosidase enzyme activity (ENZ+) [1, 31]: 100% | percentage of self-contained biological indicators positive for glucosidase enzyme activity (ENZ+) [1, 32]: 100% | percentage of self-contained biological indicators positive for glucosidase enzyme activity (ENZ+) [1, 33]: 0% | percentage of self-contained biological indicators positive for glucosidase enzyme activity (ENZ+) [1, 34]: 33% | percentage of self-contained biological indicators positive for glucosidase enzyme activity (ENZ+) [1, 35]: 0% | percentage of self-contained biological indicators positive for glucosidase enzyme activity (ENZ+) [1, 36]: 0% | percentage of self-contained biological indicators positive for glucosidase enzyme activity (ENZ+) [1, 37]: 100% | percentage of self-contained biological indicators positive for glucosidase enzyme activity (ENZ+) [1, 38]: 100% | percentage of self-contained biological indicators positive for glucosidase enzyme activity (ENZ+) [1, 39]: 0% | percentage of self-contained biological indicators positive for glucosidase enzyme activity (ENZ+) [1, 40]: 67% | percentage of self-contained biological indicators positive for glucosidase enzyme activity (ENZ+) [1, 41]: 0% | percentage of self-contained biological indicators positive for glucosidase enzyme activity (ENZ+) [1, 42]: 0% | sensitivity of the biological indicator to the sterilization process relative to the control with no additives ([2]; Example 2 / Comparative Example 1 (Table 4), fluorescence and growth readouts): increased sensitivity (decreased resistance) | sensitivity of the spores to the damaging/lethal effects of the sterilization process relative to the control with no additives ([2]; Example 3 (Table 5), fluorescence and growth readouts): increased sensitivity | percentage of self-contained biological indicators positive for growth (GRO+) [2, 3]: 80% | percentage of self-contained biological indicators positive for growth (GRO+) [2, 4]: 0% | percentage of self-contained biological indicators positive for growth (GRO+) [2, 5]: 0% | percentage of self-contained biological indicators positive for growth (GRO+) [2, 6]: 0% | percentage of self-contained biological indicators positive for growth (GRO+) [2, 7]: 0% | percentage of self-contained biological indicators positive for growth (GRO+) [2, 8]: 0% | percentage of self-contained biological indicators positive for growth (GRO+) [2, 9]: 0% | percentage of self-contained biological indicators positive for growth (GRO+) [2, 10]: 0% | percentage of self-contained biological indicators positive for growth (GRO+) [2, 11]: 0% | percentage of self-contained biological indicators positive for growth (GRO+) [2, 12]: 0% | percentage of self-contained biological indicators positive for growth (GRO+) [2, 13]: 100% | percentage of self-contained biological indicators positive for growth (GRO+) [2, 14]: 100% | percentage of self-contained biological indicators positive for growth (GRO+) [2, 15]: 0% | percentage of self-contained biological indicators positive for growth (GRO+) [2, 16]: 0% | percentage of self-contained biological indicators positive for growth (GRO+) [2, 17]: 0% | percentage of self-contained biological indicators positive for growth (GRO+) [2, 18]: 0% | percentage of self-contained biological indicators positive for growth (GRO+) [2, 19]: 100% | percentage of self-contained biological indicators positive for growth (GRO+) [2, 20]: 33% | percentage of self-contained biological indicators positive for growth (GRO+) [2, 21]: 0% | percentage of self-contained biological indicators positive for growth (GRO+) [2, 22]: 0% | percentage of self-contained biological indicators positive for growth (GRO+) [2, 23]: 0% | percentage of self-contained biological indicators positive for growth (GRO+) [2, 24]: 0% | percentage of self-contained biological indicators positive for growth (GRO+) [2, 25]: 100% | percentage of self-contained biological indicators positive for growth (GRO+) [2, 26]: 0% | percentage of self-contained biological indicators positive for growth (GRO+) [2, 27]: 0% | percentage of self-contained biological indicators positive for growth (GRO+) [2, 28]: 0% | percentage of self-contained biological indicators positive for growth (GRO+) [2, 29]: 0% | percentage of self-contained biological indicators positive for growth (GRO+) [2, 30]: 0% | percentage of self-contained biological indicators positive for growth (GRO+) [2, 31]: 100% | percentage of self-contained biological indicators positive for growth (GRO+) [2, 32]: 0% | percentage of self-contained biological indicators positive for growth (GRO+) [2, 33]: 0% | percentage of self-contained biological indicators positive for growth (GRO+) [2, 34]: 0% | percentage of self-contained biological indicators positive for growth (GRO+) [2, 35]: 0% | percentage of self-contained biological indicators positive for growth (GRO+) [2, 36]: 0% | percentage of self-contained biological indicators positive for growth (GRO+) [2, 37]: 33% | percentage of self-contained biological indicators positive for growth (GRO+) [2, 38]: 0% | percentage of self-contained biological indicators positive for growth (GRO+) [2, 39]: 0% | percentage of self-contained biological indicators positive for growth (GRO+) [2, 40]: 0% | percentage of self-contained biological indicators positive for growth (GRO+) [2, 41]: 0% | percentage of self-contained biological indicators positive for growth (GRO+) [2, 42]: 0%
